The source made the active and inactive calls. The calls are words filed in the database; no cut-off is given here.
What was measured:
Spodoptera exigua = assay: Insecticidal activity against Spodoptera exigua second-instar larvae feeded on 400 ppm compound treated lepidopteran diet assessed as insect mortality measured 5 days post compound treatment under green house conditions; format: functional; conditions: at 400 ppm
Tetranychus urticae [1] = assay: Insecticidal activity against female Tetranychus urticae (two-spotted spider mite) infested cotton leaf disks followed by 2.5 ppm compound spraying after oviposit assessed as insect mortality measured after 6 days post compound application under green house conditions; format: functional; conditions: foliar, 144 h
Bemisia tabaci [2] = test system: Bemisia tabaci
Trichoplusia ni [3] = test system: Trichoplusia ni
Heliothis virescens [4] = test system: Heliothis virescens
Aphis gossypii [5] = test system: Aphis gossypii
Heliothis virescens [6] = assay: Insecticidal activity against Heliothis virescens (tobacco budworm) second-instar larvae infested on 400 ppm compound pre-treated cotton cotyledon disk assessed as insect mortality measured 5 days post compound treatment under green house conditions; format: functional
Aphis gossypii [7] = assay: Insecticidal activity against Aphis gossypii (cotton aphid) infested one week old Crookneck squash plants assessed as insect mortality at 50 ppm measured after 3 days post compound application under green house conditions; format: functional; conditions: 72 h
Bemisia tabaci [8] = assay: Insecticidal activity against Bemisia tabaci (sweet potato whitefly) second-instar larvae infested five weeks old cotton plants followed by compound 250 ppm compound spraying after insect oviposit assessed as insect mortality measured 13 days post compound treatment under green house conditions; format: functional
Tetranychus urticae [9] = test system: Tetranychus urticae
Trichoplusia ni [10] = assay: Insecticidal activity against Trichoplusia ni (cabbage looper) second-instar larvae infested on 400 ppm compound pre-treated cabbage leaf disk assessed as insect mortality measured 5 days post compound treatment under green house conditions; format: functional; conditions: at 400 ppm

Structure (SMILES) | mortality (Spodoptera exigua) [%] | mortality at 2.5 ppm (Tetranychus urticae [1]) [%] | mortality (Bemisia tabaci [2]) | mortality (Trichoplusia ni [3]) | mortality (Heliothis virescens [4]) | mortality (Aphis gossypii [5]) | mortality (Heliothis virescens [6]) [%] | mortality at 50 ppm (Aphis gossypii [7]) [%] | mortality (Bemisia tabaci [8]) [%] | mortality (Tetranychus urticae [9]) | mortality (Trichoplusia ni [10]) [%]
Cc1c(-c2nc(-c3c(F)cccc3Cl)nn2C)sc(Br)c1-c1ccc(OC(F)(F)F)cc1 | 90 | 50 | inactive | inactive | inactive | inactive | – | – | – | – | –
Cc1sc(-c2nc(-c3c(F)cccc3Cl)nn2C)c(C)c1-c1ccc(C(C)C)cc1 | 80 | 90 | inactive | inactive | – | – | 80 | < 50 | – | – | –
Cc1cc(C2=CCC(OC(F)(F)C(F)Cl)CC2)sc1-c1nc(-c2c(F)cccc2Cl)nn1C (stereo not given) | 70 | 90 | – | inactive | – | – | 90 | 90 | 50 | – | –
Cc1cc(-c2cc(Br)cc(Br)c2)sc1-c1nc(-c2c(F)cccc2Cl)nn1C | 60 | – | inactive | inactive | – | inactive | <50 | – | – | inactive | –
COCCOc1cccc(-c2cc(C)c(-c3nc(-c4c(F)cccc4Cl)nn3C)s2)c1 | 80 | < 50 | inactive | – | inactive | – | – | < 50 | – | – | 70
Cc1cc(-c2cccc(OC(F)(F)F)c2)sc1-c1nc(-c2c(F)cccc2Cl)nn1C | 80 | – | – | – | – | inactive | 90 | – | <50 | inactive | 90
Cc1ccc(-c2sc(-c3nc(-c4c(F)cccc4Cl)nn3C)c(Cl)c2Cl)cc1 | 70 | 90 | – | inactive | – | inactive | 50 | – | 70 | – | –
Cc1c(-c2ccc(OC(F)(F)C(F)Br)cc2)sc(-c2nc(-c3c(F)cccc3Cl)nn2C)c1C (stereo not given) | 70 | 90 | – | inactive | – | – | 90 | < 50 | 80 | – | –
Cc1ccc(-c2cc(Cl)c(-c3nc(-c4c(F)cccc4Cl)nn3C)s2)cc1 | <50 | 90 | inactive | inactive | – | inactive | 60 | – | – | – | –
Cc1c(-c2nc(-c3c(F)cccc3Cl)nn2C)sc(Cl)c1-c1ccc(OC(F)(F)F)cc1 | 90 | 90 | – | inactive | inactive | inactive | – | – | <50 | – | –
Cc1c(-c2ccc(O)cc2)csc1-c1nc(-c2c(F)cccc2Cl)nn1C | <50 | – | inactive | inactive | – | inactive | <50 | – | – | inactive | –
Cc1cc(C2(O)CCC(=O)CC2)sc1-c1nc(-c2c(F)cccc2Cl)nn1C | <50 | – | inactive | – | – | inactive | <50 | – | – | inactive | <50
Cc1c(-c2nc(-c3c(F)cccc3Cl)nn2C)sc(Br)c1-c1ccc(OC(F)(F)C(F)Br)cc1 (stereo not given) | 80 | 90 | – | inactive | – | – | 90 | < 50 | <50 | – | –
CCOc1ccc(-c2cc(C)c(-c3nc(-c4c(F)cccc4Cl)nn3C)s2)cc1 | 80 | 90 | – | inactive | – | inactive | 60 | – | <50 | – | –
Cc1sc(-c2nc(-c3c(F)cccc3Cl)nn2C)c(C)c1-c1ccc(C(F)(F)F)cc1 | 90 | 90 | – | inactive | – | – | 60 | < 50 | 60 | – | –
Cc1c(-c2ccc(OC(F)(F)C(F)Br)cc2)csc1-c1nc(-c2c(F)cccc2Cl)nn1C (stereo not given) | 90 | 90 | – | inactive | – | – | 90 | 80 | 90 | – | –
Cn1nc(-c2c(F)cccc2Cl)nc1-c1sc(-c2ccc(C(F)(F)F)cc2)c(Br)c1Cl | 90 | 90 | inactive | inactive | – | – | 90 | < 50 | – | – | –
CCOc1ccc(-c2c(C)sc(-c3nc(-c4c(F)cccc4Cl)nn3C)c2C)cc1 | 80 | < 50 | – | inactive | – | – | 70 | < 50 | <50 | – | –
COc1ccc(-c2csc(-c3nc(-c4c(F)cccc4F)nn3C)c2)cc1 | 50 | – | – | – | inactive | inactive | – | – | 60 | inactive | 80
CCOc1ccc(-c2ccc(-c3nc(-c4c(F)cccc4Cl)nn3C)s2)cc1 | 80 | – | – | – | inactive | inactive | – | – | <50 | inactive | 90
Cn1nc(-c2c(F)cccc2Cl)nc1-c1sc(-c2ccc(OC(F)(F)F)cc2)c(Cl)c1Cl | 70 | – | – | – | – | inactive | 60 | – | 70 | inactive | 90
Cn1nc(-c2c(F)cccc2Cl)nc1-c1sc(-c2ccc(Br)cc2)c(Cl)c1Cl | 70 | 90 | – | inactive | – | inactive | 90 | – | 50 | – | –
Cc1cc(-c2ccncc2)sc1-c1nc(-c2c(F)cccc2Cl)nn1C | 70 | – | inactive | – | – | inactive | <50 | – | – | inactive | 90
Cc1c(-c2ccc(C(F)(F)F)cc2)csc1-c1nc(-c2c(F)cccc2Cl)nn1C | 60 | 60 | – | – | inactive | – | – | 60 | <50 | – | 90
Cn1nc(-c2c(F)cccc2Cl)nc1-c1sc(-c2ccc(C(C)(C)C)cc2)c(Cl)c1Cl | 50 | 60 | – | inactive | – | – | <50 | 80 | <50 | – | –
Cc1c(-c2nc(-c3c(F)cccc3Cl)nn2C)sc(-c2ccc(OC(F)(F)F)cc2)c1Br | 90 | 90 | inactive | – | inactive | inactive | – | – | – | – | 90
Cn1nc(-c2c(F)cccc2Cl)nc1-c1cc(-c2ccc(Cl)cc2)c(Cl)s1 | 50 | – | – | – | inactive | inactive | – | – | – | inactive | –
